Data on nine compounds can be found in patent US7507717B2 (Xenome Ltd., priority 2002, dated 2009).

Residues, ends and D or L forms follow the SMILES beside them.

For one experiment, the target named is T1, human noradrenaline transporter (hNET) (Homo sapiens, UniProt P23975).
T1 construct: expressed in transfected cells; host or cells: COS-7 cells (ATCC), transient transfection with metafectene
T1 sequence (P23975 whole entry): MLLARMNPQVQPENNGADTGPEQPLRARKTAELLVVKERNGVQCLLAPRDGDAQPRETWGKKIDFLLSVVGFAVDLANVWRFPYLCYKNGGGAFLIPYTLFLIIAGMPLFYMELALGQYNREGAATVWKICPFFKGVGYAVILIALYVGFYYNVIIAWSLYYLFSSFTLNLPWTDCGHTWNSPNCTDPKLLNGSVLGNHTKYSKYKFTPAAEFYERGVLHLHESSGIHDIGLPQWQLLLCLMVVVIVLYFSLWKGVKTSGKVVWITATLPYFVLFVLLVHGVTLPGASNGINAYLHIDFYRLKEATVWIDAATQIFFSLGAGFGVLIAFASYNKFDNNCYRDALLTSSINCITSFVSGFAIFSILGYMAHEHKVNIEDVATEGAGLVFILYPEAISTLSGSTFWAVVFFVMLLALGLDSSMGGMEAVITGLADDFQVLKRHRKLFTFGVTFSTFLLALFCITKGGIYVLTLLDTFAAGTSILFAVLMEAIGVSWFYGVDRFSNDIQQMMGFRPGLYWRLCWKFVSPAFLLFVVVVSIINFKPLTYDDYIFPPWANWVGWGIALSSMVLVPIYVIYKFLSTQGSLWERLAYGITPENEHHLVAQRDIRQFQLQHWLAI
The experiment is described as follows: biochemical. In kind it is binding.
Conditions: not given
On to YNGVCCGYKDCHPC [compound 209], for which the “Av IC50 Displacement of 3H-nisoxetine from hNET” value is recorded as −2.00.

With YNGVCCGYKLCEPC [compound 210], the “Av IC50 Displacement of 3H-nisoxetine from hNET” value is −2.00.

Still in this experiment, the particulars now being: Av IC50 Displacement of 3H-nisoxetine from hNET.
As to `CC(C)C[C@@H]1NC(=O)[C@H](CCCCN)NC(=O)[C@H](Cc2ccc(O)cc2)NC(=O)CNC(=O)[C@@H]2CSSC[C@H](NC1=O)C(=O)N[C@@H](CCCNC(=N)N)C(=O)N1CCC[C@H]1C(=O)N[C@H](C(N)=O)CSSC[C@H](NC(=O)[C@@H](NC(=O)CNC(=O)[C@H](CC(N)=O)NC(=O)[C@@H](N)Cc1c[nH]c3ccccc13)C(C)C)C(=O)N2` [compound 60], the IC50 is 178 nM.

Regarding `CC(C)C[C@@H]1NC(=O)[C@H](Cc2ccc(O)cc2)NC(=O)CNC(=O)[C@@H]2CSSC[C@H](NC(=O)[C@H](CC(C)C)NC1=O)C(=O)N[C@@H](Cc1c[nH]cn1)C(=O)N1CCC[C@H]1C(=O)N[C@H](C(N)=O)CSSC[C@H](NC(=O)[C@@H](NC(=O)CNC(=O)[C@H](CC(N)=O)NC(=O)[C@@H](N)Cc1ccc(O)cc1)C(C)C)C(=O)N2` [compound 174] (HELM PEPTIDE1{Y.N.G.V.C.C.G.Y.L.L.C.H.P.C.[am]}$PEPTIDE1,PEPTIDE1,5:R3-14:R3|PEPTIDE1,PEPTIDE1,6:R3-11:R3$$$V2.0), the IC50 is 17400 nM.

For `CC(C)C[C@@H]1NC(=O)[C@H](CCCCN)NC(=O)[C@H](Cc2ccc(O)cc2)NC(=O)CNC(=O)[C@@H]2CSSC[C@H](NC1=O)C(=O)N[C@@H](Cc1c[nH]cn1)C(=O)N[C@@H](CCCCN)C(=O)N[C@H](C(N)=O)CSSC[C@H](NC(=O)[C@@H](NC(=O)CNC(=O)[C@@H](N)CC(N)=O)C(C)C)C(=O)N2` [compound 117] (HELM PEPTIDE1{N.G.V.C.C.G.Y.K.L.C.H.K.C.[am]}$PEPTIDE1,PEPTIDE1,4:R3-13:R3|PEPTIDE1,PEPTIDE1,5:R3-10:R3$$$V2.0), the IC50 is 1150 nM.

On to `CC(C)C[C@@H]1NC(=O)[C@H](CCCCN)NC(=O)[C@H](Cc2ccc(O)cc2)NC(=O)CNC(=O)[C@@H]2CSSC[C@H](NC1=O)C(=O)N[C@@H](Cc1c[nH]cn1)C(=O)N1CCC[C@H]1C(=O)N[C@H](C(N)=O)CSSC[C@H](NC(=O)[C@@H](NC(=O)[C@H](CO)NC(=O)[C@@H](N)CC(N)=O)C(C)C)C(=O)N2` [compound 156] (HELM PEPTIDE1{N.S.V.C.C.G.Y.K.L.C.H.P.C.[am]}$PEPTIDE1,PEPTIDE1,4:R3-13:R3|PEPTIDE1,PEPTIDE1,5:R3-10:R3$$$V2.0), for which the IC50 was 4270 nM.

In turn, `CC(C)C[C@@H]1NC(=O)[C@H](CCCCN)NC(=O)[C@H](Cc2ccc(O)cc2)NC(=O)CNC(=O)[C@@H]2CSSC[C@H](NC1=O)C(=O)N[C@@H](Cc1c[nH]cn1)C(=O)N[C@@H](C)C(=O)N[C@H](C(N)=O)CSSC[C@H](NC(=O)[C@@H](NC(=O)CNC(=O)[C@H](CCCNC(=N)N)NC(=O)[C@@H](N)Cc1c[nH]c3ccccc13)C(C)C)C(=O)N2` [compound 54] gave an IC50 of 158 nM.

Compound `CC(C)C[C@@H]1NC(=O)[C@H](CCCCN)NC(=O)[C@H](Cc2ccc(O)cc2)NC(=O)CNC(=O)[C@@H]2CSSC[C@H](NC1=O)C(=O)N[C@@H](CCCNC(=N)N)C(=O)N[C@@H](C)C(=O)N[C@H](C(N)=O)CSSC[C@H](NC(=O)[C@@H](NC(=O)CNC(=O)[C@H](CC(N)=O)NC(=O)[C@@H](N)Cc1ccc(O)cc1)C(C)C)C(=O)N2` [compound 81] had an IC50 of 295 nM.

`CC[C@H](C)[C@H](NC(=O)CN)C(=O)N[C@@H](CC(C)C)C(=O)N[C@@H](CCCNC(=N)N)C(=O)N[C@@H](CC(N)=O)C(=O)NCC(=O)N[C@H](C(=O)N[C@H]1CSSC[C@@H](C(N)=O)NC(=O)[C@@H]2CCCN2C(=O)[C@H](Cc2c[nH]cn2)NC(=O)[C@@H]2CSSC[C@H](NC1=O)C(=O)NCC(=O)N[C@@H](Cc1ccc(O)cc1)C(=O)N[C@@H](CCCCN)C(=O)N[C@@H](CC(C)C)C(=O)N2)C(C)C` [compound 105] (HELM PEPTIDE1{G.I.L.R.N.G.V.C.C.G.Y.K.L.C.H.P.C.[am]}$PEPTIDE1,PEPTIDE1,8:R3-17:R3|PEPTIDE1,PEPTIDE1,9:R3-14:R3$$$V2.0): the IC50 was 759 nM.
